In general, MIC refers to the least concentration at which growth counts as inhibited. Low readings indicate inhibition by little substance, high ones a need for much substance.

Consider 1 compound from US20260061016A1, “Extrait aqueux des parties aériennes d'une plante du genre Aster et ses utilisations” (TAUDERMA, priority 2022, published 2026).

Converted amounts (≈) assume the structure as drawn.

This test deals with S. aureus registered under number DSM799. As to the kind of experiment: Minimum inhibitory concentration (MIC), solution culture in 96-well plates followed by drop culture on TSB agar. It counts as cell-based, Staphylococcus aureus. The procedure: The aim of the test is to compare the efficacy of an extract according to Example 1 or Example 2 and an extract of the Aster genus obtained from the root system (Without the Invention). The aim of the test is to identify the minimum inhibitory concentration (MIC) on a strain of S. aureus registered under number DSM799. The minimum inhibitory concentration (MIC) was determined in vitro using S. aureus solution culture in 96-well plates. The initial concentration of S. aureus was 1.25*10^5 CFU/ml. After 48 h incubation in the presence of a series of dilutions of the extract, a 20 μl drop was taken and placed on a TSB agar plate. The diameter of the “drop culture” is about 1.5 cm. Agar plate cultures were then incubated at 37° C. for 14 hours. The positive control corresponds to the maximum growth of a bacterium, that is, when it is fully confluent, meaning that bacterial colonies stick together and none are visible. Different extracts according to the invention and not according to the invention at different concentrations are thus compared. When no colonies, or separate individual colonies, are visible, then the bacteria have been inhibited by the extract. The extract concentration is then defined as MIC. […] The definition of MIC is as follows: Arbitrary units of bacterial growth were determined on agar culture plates (drop method). […]

Consider `O=C(N[C@H](CO)[C@H](O)c1ccc([N+](=O)[O-])cc1)C(Cl)Cl` [Chloramphenicol], for which the MIC (Staphylococcus aureus, 48 h incubation with extract dilutions, drop on TSB agar, 14 h at 37° C.) was found to be 50 µg/mL (≈ 155 µM). This compound also gave a Number of colonies (agar drop culture at the MIC) of 0.
